Results from US6083986A, “Potassium channel inhibitors” (ICAgen, Inc., priority 1997, dated 2000).

Assays:
[1] = molecular target: T1, human Kv1.5 potassium channel (Homo sapiens, UniProt P22460); experiment: Whole cell patch clamp, inhibition of Kv1.5 current in CHO cells; assay type: cell-based; details: for IC50: Kv1.5, whole cell patch clamp, approx. values, read-out: 50% Channel Inhibition (IC50)
T1 construct: Error-free parts of these clones were then ligated together to form a complete cDNA construct; expressed in transfected cells
Procedure: (§1) 4. Electrophysiological Studies
(§2) Electrophysiological recordings of native channels in cells and cell lines, cloned and expressed channels in cells (e.g., CHO cells) as well as isolated cardiac myocytes were performed using the whole cell configuration of the patch clamp technique (Hamill et al., Pflugers Archiv 391:85, 1981). Cell lines were prepared as described above (cloning, etc.). Rat and human cardiac myocytes were isolated using the methods described in Castle and Slawsky, J. Pharmacol. Exp. Ther. 264:1450, 1993 and Wang et al., Circ. Res., 73:1061, 1993, respectively. Cells were plated on glass coverslips at a density of 2×10^4 cells/coverslip and used within 24-48 hours for cultured cell lines and within 6 hours for isolated cardiac myocytes. The coverslips were placed in a small chamber (volume ~200 μl) on the mechanical stage of an inverted microscope and perfused (2 ml/min) with extracellular recording solution. Drug application was achieved via a series of narrow-bore glass capillary tubes (inner diameter ~100 μm) positioned approximately 200 μm from the cell. Application of voltage-clamp pulses, data acquisition and the analysis were controlled by a 75 MHz Pentium computer using pCLAMP 6.0 software (Axon Instruments Inc. Foster City, Calif.).
500 ms voltage clamp steps from -80 mV to +60 mV were applied to individual cells every 20 seconds for Kv1.5 and every 60 seconds for Kv1.3.

human T lymphocytes = experiment: T-lymphocyte proliferation assay (PHA-stimulated 3H-thymidine incorporation); assay type: cell-based; details: compared to PHA-only controls; 10 μM compound 4, 1 nM margatoxin, 50 nM charybdotoxin; PHA 1.25 or 2.5 μg/ml
Procedure: Lymphocyte Proliferation Studies
(§4) A T-lymphocyte proliferation assay was performed using human peripheral T-lymphocytes isolated by centrifugation on lymphocyte separation medium (Organon Teknika) followed by adherence of non-T cells on nylon wool. […] 100 μl of cells/well was dispensed into a 96-well plate. Cells were stimulated with phytohemoagglutinin (1.25 or 2.5 μg/ml final concentration) in the presence or absence of various antagonists for 3 days. On the fourth day, cells were pulsed with [^3 ]thymidine for an additional 18 hours and harvested on glass fiber filtermats with extensive washing. Mats were counted in a Wallac Microbeta liquid scintillation counter using melt-on scintillant. Additional wells were counted at the end of the 18 hour period to determine if the drug treatments caused cellular toxicity.

[2] = molecular target: T2, human Kv1.3 potassium channel (Homo sapiens, UniProt P22001); experiment: 86Rubidium efflux from CHO cell monolayers expressing Kv1.3; assay type: cell-based; details: for inhibition of 60 mM KCl evoked increase in 86Rb efflux rate (Kv1.3): preexposure to 5 nM margatoxin or 10 μM compound 4, 15 minute period, n=4
Procedure: Stable clones were tested for voltage-gated potassium channel expression using a ^86 rubidium (^86 Rb) ion flux assay (see below for methodology).
(§5) 2. ^86 Rubidium Efflux From Cell Monolayers
CHO cells stably transfected with either human Kv1.5 or Kv1.3 as well as nontransfected cells were grown to approximately 90% confluence in 24 well tissue culture plates. Tissue culture growth medium was then removed and replaced with 1 ml of Iscoves modified DMEM containing ^86 Rb at a concentration of 1 μCi/ml and incubated for three hours at 37° C. to permit intracellular uptake of the isotope. At the end of the incubation period, the ^86 Rb solution was aspirated and the cells washed three times with Earls Balanced Salt Solution (EBSS). The cells were then incubated for 15 minutes at room temperature in 0.6 ml/well of EBSS or EBSS containing the compounds to be tested. At the end of this period, a 0.3 ml sample was taken for analysis to determine basal efflux of ^86 Rb. To each well was then added 0.3 ml of a modified high KCl EBSS, containing 125 mM KCl (NaCl replaced by KCl; final KCl concentration in each well was 65 nM) and the compounds to be tested. The high KCl concentration was utilized to depolarize the cells to membrane potentials that would activate Kv1.3 and Kv1.5 channels. After a 15 minute incubation, another 0.3 ml sample was taken for analysis. Finally 0.3 ml of 0.2% sodium dodecyl sulfate in EBSS was added to each well to lyse the cells. Of this lysate 0.3 ml was taken for analysis to determine final cell content of ^86 Rb. Samples were counted in a Wallac Microbeta Liquid Scintillation counter by Cerenkov emission. Efflux was expressed as a percentage of the initial cell content of ^86 Rb.
(§6) Values are means ±s.e. (n=4) of the amount of ^86 Rb released in a 15 minute period and are expressed as a percentage of the initial cell content.

human atrial myocytes = experiment: Action potential prolongation in isolated human atrial myocytes; assay type: cell-based
Procedure: as §1, §2
(§3) A functional consequence of potassium channel inhibition in the heart is a prolongation of the action potential duration. […]

[3] = molecular target: T2, human Kv1.3 potassium channel; experiment: Fluorescence measurement of cell membrane potential (DiBac4(3)) in CHO cells expressing Kv1.3; assay type: cell-based; details: 10 μM; compared with margatoxin; CHO cells expressing human Kv1.3
Procedure: Fluorescence Measurement of Cell Membrane Potential
CHO cells stably transfected with genes encoding human voltage gated potassium channels were grown to 80-90% confluency in 96 well tissue culture plates. On the experimental day, they were repeatedly contacted with a modified EBSS (116 mM NaCl, 5.4 mM KCl, 1.8 mM CaCl2, 0.8 mM MgCl2, 20 mM HEPES, 5 nM glucose; pH 7.4, 300 mOsm) plus 5 μM of the voltage-sensitive oxonol dye, bis-(1,3-dibutylbarbituric acid)trimethine oxonol (DiBac4 (3)). Dibac4 (3) binds to intracellular proteins in a membrane potential-dependent process, changing the effective concentration of fluorescing molecules. […] The cells in each well were then incubated in EBSS+5 μM DiBac4 (3) at 37° C. for 30 minutes. The 96 well plate was then placed in a 35° C. temperature controlled chamber within a laser based fluorescence imaging plate reader (NovelTech Inc.). Data were collected every 60 seconds for periods ranging from 20 to 40 min. To permit comparative quantification of the magnitude of drug induced changes in the fluorescence signal, changes were compared to the addition of EBSS+5 μM DiBac4 (3) without drug and EBSS+5 μM DiBac4 (3)+30 mM KCl without drug, and expressed as a percentage of the increase in fluorescence induced by exposure of the cells to 30 mM KCl. […]

nontransfected CHO cells = experiment: Fluorescence measurement of cell membrane potential (DiBac4(3)) in non-transfected CHO cells; assay type: cell-based, Chinese hamster; details: 10 μM; CHO-WT
[4] = molecular target: T2, human Kv1.3 potassium channel; experiment: Whole cell patch clamp, inhibition of Kv1.3 current in CHO cells; assay type: cell-based; details: 10 μM, 5 min preincubation; steps -80 mV to +60 mV every 60 seconds
Procedure: as §1
as §2, with “Calif.). […]” for “Calif.).”

[5] = molecular target: T1, human Kv1.5 potassium channel; experiment: 86Rubidium efflux from CHO cell monolayers expressing Kv1.5; assay type: cell-based; details: 10 μM compound 4; 15 minute period; n=4
Procedure: as §5
CHO cells stably transfected with either human Kv1.5 or Kv1.3 as well as nontransfected cells were grown to approximately 90% confluence in 24 well tissue culture plates. Tissue culture growth medium was then removed and replaced with 1 ml of Iscoves modified DMEM containing ^86 Rb at a concentration of 1 μCi/ml and incubated for three hours at 37° C. to permit intracellular uptake of the isotope. At the end of the incubation period, the ^86 Rb solution was aspirated and the cells washed three times with Earls Balanced Salt Solution (EBSS). The cells were then incubated for 15 minutes at room temperature in 0.6 ml/well of EBSS or EBSS containing the compounds to be tested. At the end of this period, a 0.3 ml sample was taken for analysis to determine basal efflux of ^86 Rb. To each well was then added 0.3 ml of a modified high KCl EBSS, containing 125 mM KCl (NaCl replaced by KCl; final KCl concentration in each well was 65 nM) and the compounds to be tested. […] Samples were counted in a Wallac Microbeta Liquid Scintillation counter by Cerenkov emission. Efflux was expressed as a percentage of the initial cell content of ^86 Rb.
as §6

human T-lymphocytes = experiment: Toxicity to human T-lymphocytes (cell viability); assay type: cell-based; details: 10 μM, 90 hours of exposure
Procedure: as §4

[6] = system: IKur in human atrial myocytes; experiment: Inhibition of IKur currents in isolated human atrial myocytes; assay type: cell-based
Procedure: as §1, §2

rat cardiac myocytes = experiment: Action potential prolongation in rat cardiac myocytes; assay type: cell-based; details: 1 μM, 2 min application
Procedure: as §1, §2, §3

T1 sequence (P22460 whole entry): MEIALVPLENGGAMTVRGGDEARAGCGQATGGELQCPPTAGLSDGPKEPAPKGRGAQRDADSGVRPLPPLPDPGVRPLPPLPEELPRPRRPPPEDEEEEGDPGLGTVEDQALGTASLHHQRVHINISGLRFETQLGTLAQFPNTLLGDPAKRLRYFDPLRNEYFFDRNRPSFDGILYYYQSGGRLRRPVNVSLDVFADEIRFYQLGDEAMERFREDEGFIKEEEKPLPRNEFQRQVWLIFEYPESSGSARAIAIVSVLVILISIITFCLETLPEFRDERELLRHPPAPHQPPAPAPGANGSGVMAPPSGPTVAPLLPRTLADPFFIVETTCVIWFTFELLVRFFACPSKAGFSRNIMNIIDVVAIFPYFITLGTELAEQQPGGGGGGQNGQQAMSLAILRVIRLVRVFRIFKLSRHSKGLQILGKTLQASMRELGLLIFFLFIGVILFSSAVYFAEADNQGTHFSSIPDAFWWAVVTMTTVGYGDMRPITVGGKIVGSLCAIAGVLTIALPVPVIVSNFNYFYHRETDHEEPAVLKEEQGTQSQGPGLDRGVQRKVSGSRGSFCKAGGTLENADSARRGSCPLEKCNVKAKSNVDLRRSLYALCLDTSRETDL
T2 sequence (P22001 whole entry): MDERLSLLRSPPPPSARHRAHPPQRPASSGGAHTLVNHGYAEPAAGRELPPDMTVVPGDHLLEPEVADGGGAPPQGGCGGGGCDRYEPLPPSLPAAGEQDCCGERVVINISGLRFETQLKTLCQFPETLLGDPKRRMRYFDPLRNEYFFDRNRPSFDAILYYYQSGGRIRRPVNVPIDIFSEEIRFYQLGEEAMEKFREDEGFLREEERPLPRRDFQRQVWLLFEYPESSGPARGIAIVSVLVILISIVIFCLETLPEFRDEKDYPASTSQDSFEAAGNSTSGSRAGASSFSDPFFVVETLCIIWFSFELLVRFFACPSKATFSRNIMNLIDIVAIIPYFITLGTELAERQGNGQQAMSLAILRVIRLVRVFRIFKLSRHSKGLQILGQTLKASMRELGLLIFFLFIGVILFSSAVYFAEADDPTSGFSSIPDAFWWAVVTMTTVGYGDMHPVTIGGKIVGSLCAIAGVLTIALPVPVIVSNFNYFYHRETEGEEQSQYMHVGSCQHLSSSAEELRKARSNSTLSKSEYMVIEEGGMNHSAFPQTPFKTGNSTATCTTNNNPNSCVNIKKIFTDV

## COc1cccc(C(=O)Nc2ccc3c(c2)C(NS(=O)(=O)c2ccc4ccccc4c2)C(O)C3)c1 (stereo not drawn) [Compound 16]
[1]
  IC50: ~1000 nM

## CCc1ccc(S(=O)(=O)NC2c3cc(NC(=O)C4CC5CCC4CC5)ccc3CC2O)cc1 (stereo not drawn) [Compound 13]
[1]
  IC50: ~1000 nM

## COc1cccc(C(=O)Nc2ccc3c(c2)C(NS(=O)(=O)c2ccccc2)C(O)C3)c1 (stereo not drawn) [Compound 12]
[1]
  IC50: > 1000 nM

## COc1ccc(S(=O)(=O)NC2c3cc(NC(=O)c4cccc(OC)c4)ccc3CC2O)cc1 (stereo not drawn) [Compound 10]
[1]
  IC50: > 1000 nM

## CCc1ccc(S(=O)(=O)NC2c3cc(NC(=O)c4ccccc4F)ccc3CC2O)cc1 (stereo not drawn) [Compound 17]
[1]
  IC50: > 1000 nM

## CCCCCOc1ccc(C(=O)Nc2ccc3c(c2)C(NS(=O)(=O)c2ccc(CC)cc2)C(O)C3)cc1 (stereo not drawn) [Compound 15]
[1]
  IC50: ~1000 nM

## charybdotoxin
Human T lymphocytes
  inhibition of lymphocyte proliferation: inhibited lymphocyte proliferation to a similar extent

## CCc1ccc(S(=O)(=O)NC2c3cc(NC(=O)c4cccc(C)c4)ccc3CC2O)cc1 (stereo not drawn) [Compound 2]
[1]
  IC50: ~1000 nM

## margatoxin (TIINVKCTSPKQCLPPCKAQFGQSAGAKCMNGKCKCYPH; UniProt P40755 1-39, looked up)
Human T lymphocytes
  inhibition of lymphocyte proliferation: inhibited lymphocyte proliferation to a similar extent
[2]; margatoxin present, four positive Kv1.3 clones
  inhibition of KCl-stimulated 86Rb efflux: approximately 95%
[2]
  inhibition of 60 mM KCl evoked increase in 86Rb efflux rate (Kv1.3): completely abolished

## CCc1ccc(S(=O)(=O)N[C@H]2c3cc(NC(=O)c4cccc(OC)c4)ccc3C[C@@H]2O)cc1 (relative stereo) [Compound 4, 1-(p-ethylphenyl)sulfimide-2-hydroxy-6-(m-methoxy)benzamido-indane]
Human atrial myocytes
  activation at 1 µM: > 50%
[3]
  cell membrane depolarization (Kv1.3): produced a depolarization similar in magnitude to that induced by the Kv1.3-specific blocking toxin margatoxin
Nontransfected CHO cells
  compound-induced depolarization (nontransfected cells): absent
[4]
  inhibition of potassium currents (Kv1.3): inhibition of potassium currents
Human T lymphocytes
  inhibition of lymphocyte proliferation: inhibited lymphocyte proliferation to a similar extent
[5]
  inhibition of KCl evoked increase in 86Rb efflux rate (Kv1.5): completely inhibited
[2]
  inhibition of 60 mM KCl evoked increase in 86Rb efflux rate (Kv1.3): completely abolished
[1]; 10 μM, 5 min preincubation, steps -80 mV to +60 mV every 20 seconds
  inhibition of potassium currents (Kv1.5): inhibition of potassium currents
[1]
  IC50: ~100 nM
Human T-lymphocytes
  cell viability / toxicity to human T-lymphocytes: no decrease in cell viability
[6]
  inhibition at 1 µM: > 50%
Rat cardiac myocytes
  prolongation of the action potential (rat): prolongs the action potential

## CCc1ccc(S(=O)(=O)NC2c3cc(NC(=O)CCC4CCCC4)ccc3CC2O)cc1 (stereo not drawn) [Compound 11]
[1]
  IC50: ~1000 nM
